Experiments:
[1] = Stability in water: time evolution in D2O followed by 1H NMR (hydrolysis); assay type: physicochemical; settings: 15 mM solution in D2O at 25 °C, read-out: t1/2 (hydrolysis) (converted)
Procedure: One of the critical factors that conditions the viability and applicability of functional dyes 3 and 4 as fluorescent mitochondrial probes is their stability in water, since these compounds contain two potentially labile B-O bonds linking the fluorophore with the carnitine substituent. This stability was determined analyzing the time evolution of 3 and 4 in a 15 mM solution in D2O at 25 °C using ^1H NMR. This technique makes it possible not only to define their stability, but also to identify the possible degradation products (Diagram 2). Both probes are hydrolyzed, generating free carnitine and the corresponding 4,4-dihydroxy-BODIPY derivatives 5 and 6. [drawing 8]
Compound 3 is quickly hydrolyzed (t1/2 = 10 min); however, the greater substitution of the tetramethylated derivative in 4 gives it greater stability (t1/2 = 6 h), which promotes its use as a fluorescent marker in live cells. Contrary to what might be believed, the generation of free carnitine and of the corresponding BODIPY derivatives 5 and 6 at physiological pH is, indeed, an advantage for its application in cell labels. Thus, (R)-carnitine is incorporated into the mitochondrial metabolism, while the boron of the hydrolyzed BODIPY can covalently bond to poly-hydroxilated molecules (for example, saccharides and glycoproteins), generating cyclic boronic esters. […]

[2] = Time evolution of the photophysical properties in water; assay type: physicochemical; design: key to φ: fluorescence quantum yield, fraction (0.65 = 65%); settings: for kfl / knr / εmax / λab / λfl / τ / φ: water
Procedure: Indeed, the fluorescence yield remains constant for 7 hours. However, due to the oligomerization of hydrolysis product 6 and to the ensuing precipitation of the resulting oligomers, fluorescence efficiency gradually decreases in 24 hours, although it maintains a quantum yield of 65%. […] Indeed, the diffusion of the dye outside of the cell organelle, which occurs in dyes not covalently bonded thereto, is one of the main problems in the development of fluorescent biological markers because it entails a significant reduction in fluorescent efficiency and, thus, in the accuracy and reproducibility of the experiments. The rational design of probe 4 must, therefore, prevent this loss of fluorescence signal and improve the quality and accuracy of the measurements, thereby enhancing its applicability as a biological probe.

HeLa = assay: Kinetics of cell labeling by flow cytometry; assay type: cell-based, human; settings: 50 nM, staining times 5, 15 and 30 min
Procedure: (§1) The cell assays were carried out on two human cell lines: SCC38 and HeLa. The SCC38 line is derived from human laryngeal epidermoid carcinoma patients, while HeLa, the first human cell line established in culture, is derived from cervical cancer. The culture medium used for both cell lines was DMEM (Dulbecco's Modified Eagle's Medium) supplemented with 10% of fetal bovine serum (FBS), 100 U/mL of penicillin, 200 µg/mL of streptomycin, 100 µmol/L of non-essential amino acids and 2 mmol/L of glutamine. The cultures were incubated at 37 °C and 5% of CO2.
(§2) The kinetics of cell labeling with 4 was studied by flow cytometry with the SCC38 and HeLa cell lines, using MitoTracker® Red as a control marker, both at a concentration of 50 nM. The staining times studied were 5, 15, 30 and 45 minutes. After staining, the medium was removed, washed with PBS, trypsinized and the pellet was resuspended in 500 µL of PBS and introduced in the cytometer after filtration. A Beckman Coulter Cytomics FC500 Flow Cytometry Analyzer was used (Scientific-Technical Services, Universidad de Oviedo). Part of the resuspended cells were also plated and observed under the microscope.

SCC38 = assay: Kinetics of cell labeling by flow cytometry; assay type: cell-based, human
Procedure: as §1, §2

SMILES: CC1=CC(C)=[N+]2C1=C(c1c(C)cc(C)cc1C)c1c(C)cc(C)n1[B-]21OC(=O)C[C@H](C[N+](C)(C)C)O1 (stereo partly shown) [Compound 4]
- half-life at 15000 µM [1]: 6 h
- effect of hydrolysis on fluorescence emission ([2]; in water): does not entail a significant reduction in its fluorescence emission
- time for which the fluorescence yield remains constant ([2]; in water): 7 h
- quantum yield ([2]; in water, in 24 hours): 65%
- kfl ([2]; time 00:00 (hours:min)): 1.14 10^8s^-1
- knr ([2]; time 00:00 (hours:min)): 0.23 10^8s^-1
- εmax ([2]; time 00:00 (hours:min)): 3.8 10^4 M^-1 CM^-1
- λab ([2]; time 00:00 (hours:min)): 499 nm
- λfl ([2]; time 00:00 (hours:min)): 511 nm
- τ ([2]; time 00:00 (hours:min)): 7.30 ns
- φ ([2]; time 00:00 (hours:min)): 0.83
- kfl ([2]; time 00:10 (hours:min)): 1.14 10^8s^-1
- knr ([2]; time 00:10 (hours:min)): 0.24 10^8s^-1
- εmax ([2]; time 00:10 (hours:min)): 3.8 10^4 M^-1 CM^-1
- λab ([2]; time 00:10 (hours:min)): 498 nm
- λfl ([2]; time 00:10 (hours:min)): 511 nm
- τ ([2]; time 00:10 (hours:min)): 7.25 ns
- φ ([2]; time 00:10 (hours:min)): 0.82
- kfl ([2]; time 00:25 (hours:min)): 1.14 10^8s^-1
- knr ([2]; time 00:25 (hours:min)): 0.25 10^8s^-1
- εmax ([2]; time 00:25 (hours:min)): 3.8 10^4 M^-1 CM^-1
- λab ([2]; time 00:25 (hours:min)): 498 nm
- λfl ([2]; time 00:25 (hours:min)): 511 nm
- τ ([2]; time 00:25 (hours:min)): 7.20 ns
- φ ([2]; time 00:25 (hours:min)): 0.82
- kfl ([2]; time 00:50 (hours:min)): 1.16 10^8s^-1
- knr ([2]; time 00:50 (hours:min)): 0.24 10^8s^-1
- εmax ([2]; time 00:50 (hours:min)): 3.8 10^4 M^-1 CM^-1
- λab ([2]; time 00:50 (hours:min)): 498 nm
- λfl ([2]; time 00:50 (hours:min)): 509 nm
- τ ([2]; time 00:50 (hours:min)): 7.15 ns
- φ ([2]; time 00:50 (hours:min)): 0.83
- kfl ([2]; time 01:20 (hours:min)): 1.17 10^8s^-1
- knr ([2]; time 01:20 (hours:min)): 0.25 10^8s^-1
- εmax ([2]; time 01:20 (hours:min)): 3.8 10^4 M^-1 CM^-1
- λab ([2]; time 01:20 (hours:min)): 498 nm
- λfl ([2]; time 01:20 (hours:min)): 509 nm
- τ ([2]; time 01:20 (hours:min)): 7.05 ns
- φ ([2]; time 01:20 (hours:min)): 0.83
- kfl ([2]; time 02:00 (hours:min)): 1.18 10^8s^-1
- knr ([2]; time 02:00 (hours:min)): 0.25 10^8s^-1
- εmax ([2]; time 02:00 (hours:min)): 3.8 10^4 M^-1 CM^-1
- λab ([2]; time 02:00 (hours:min)): 497 nm
- λfl ([2]; time 02:00 (hours:min)): 509 nm
- τ ([2]; time 02:00 (hours:min)): 7.00 ns
- φ ([2]; time 02:00 (hours:min)): 0.83
- kfl ([2]; time 03:00 (hours:min)): 1.18 10^8s^-1
- knr ([2]; time 03:00 (hours:min)): 0.26 10^8s^-1
- εmax ([2]; time 03:00 (hours:min)): 3.8 10^4 M^-1 CM^-1
- λab ([2]; time 03:00 (hours:min)): 497 nm
- λfl ([2]; time 03:00 (hours:min)): 509 nm
- τ ([2]; time 03:00 (hours:min)): 6.95 ns
- φ ([2]; time 03:00 (hours:min)): 0.82
- kfl ([2]; time 04:00 (hours:min)): 1.19 10^8s^-1
- knr ([2]; time 04:00 (hours:min)): 0.26 10^8s^-1
- εmax ([2]; time 04:00 (hours:min)): 3.8 10^4 M^-1 CM^-1
- λab ([2]; time 04:00 (hours:min)): 497 nm
- λfl ([2]; time 04:00 (hours:min)): 509 nm
- τ ([2]; time 04:00 (hours:min)): 6.90 ns
- φ ([2]; time 04:00 (hours:min)): 0.82
- kfl ([2]; time 05:00 (hours:min)): 1.22 10^8s^-1
- knr ([2]; time 05:00 (hours:min)): 0.26 10^8s^-1
- εmax ([2]; time 05:00 (hours:min)): 3.8 10^4 M^-1 CM^-1
- λab ([2]; time 05:00 (hours:min)): 497 nm
- λfl ([2]; time 05:00 (hours:min)): 508 nm
- τ ([2]; time 05:00 (hours:min)): 6.80 ns
- φ ([2]; time 05:00 (hours:min)): 0.82
- kfl ([2]; time 06:00 (hours:min)): 1.23 10^8s^-1
- knr ([2]; time 06:00 (hours:min)): 0.26 10^8s^-1
- εmax ([2]; time 06:00 (hours:min)): 3.8 10^4 M^-1 CM^-1
- λab ([2]; time 06:00 (hours:min)): 496 nm
- λfl ([2]; time 06:00 (hours:min)): 508 nm
- τ ([2]; time 06:00 (hours:min)): 6.70 ns
- φ ([2]; time 06:00 (hours:min)): 0.83
- kfl ([2]; time 07:00 (hours:min)): 1.24 10^8s^-1
- knr ([2]; time 07:00 (hours:min)): 0.26 10^8s^-1
- εmax ([2]; time 07:00 (hours:min)): 3.8 10^4 M^-1 CM^-1
- λab ([2]; time 07:00 (hours:min)): 496 nm
- λfl ([2]; time 07:00 (hours:min)): 508 nm
- τ ([2]; time 07:00 (hours:min)): 6.65 ns
- φ ([2]; time 07:00 (hours:min)): 0.83
- kfl ([2]; time 24:00 (hours:min)): 1.03 10^8s^-1
- knr ([2]; time 24:00 (hours:min)): 0.54 10^8s^-1
- εmax ([2]; time 24:00 (hours:min)): 3.7 10^4 M^-1 CM^-1
- λab ([2]; time 24:00 (hours:min)): 496 nm
- λfl ([2]; time 24:00 (hours:min)): 507 nm
- τ ([2]; time 24:00 (hours:min)): 6.50 ns
- φ ([2]; time 24:00 (hours:min)): 0.65
- change of staining intensity with incubation time (HeLa): clearly increased in intensity with incubation time
- change of staining intensity with incubation time (SCC38; SCC38, 50 nM, staining times 5, 15 and 30 min): clearly increased in intensity with incubation time
- labeling intensity at longer staining time (SCC38; new cytometry experiment, 45 min versus 30 min, cell line not stated): even more intense than with a time of 30 minutes

— patent publication EP3650451A1, “COMPOUNDS AND THEIR USES AS FLUORESCENT PROBES” (Consejo Superior de Investigaciones Cientificas, priority 2017, dated 2019)
